Entries after “also recorded” stand apart in the source; their conditions may differ. Read-outs that look alike come from different tables or passages of the source. Marks after values point to notes of the source that are not given here.
Experiments:
IL-1β = experiment: Immunoblot of IL-1β expression in placental tissue; type: in vivo; settings: DMA rescued mice vs LPS-triggered PTB mice, p<0.01
Excerpt: (§1) The probe was thoroughly cleaned after each sample.
(§2) Chemifluorescence was detected by exposure to an autoradiography film.

LPS-triggered PTB = settings: for Number of pups retained / Number of pups dropped: 50 mg/kg LPS
Experimental: Mice were then randomly assigned to the control group or one of five treatment groups. […] Additionally, a sixth group of four animals received i.p. injections of 0.5 ml PBS in lieu of LPS at the same time points and served as sham (Table 1).
After the injection at t=10 hours, mice were continually monitored; time of delivery of the first pup and number of pups dropped over time were recorded. […] All mice were sacrificed by carbon dioxide asphyxiation. The mice were autopsied at the end of experiments to confirm pregnancy and to determine the number of pups retained in utero. Placenta and uteri were harvested and stored.

TNF-α = experiment: Immunoblot of TNF-α expression in placental tissue; type: in vivo; settings: DMA rescued mice vs LPS-triggered PTB mice, p<0.001
Excerpt: as §1, §2

IL-6 = experiment: Immunoblot of IL-6 expression in placental tissue; type: in vivo; settings: DMA rescued mice vs LPS-triggered PTB mice, p<0.05
Excerpt: as §1, §2

[1] = rats, cited from earlier work
[2] = system: P450-dependent monooxygenase or phase II enzyme activities; settings: rat; cited from earlier work

Structure (SMILES)	IL-1β expression in placentas (IL-1β)	Number of pups retained (LPS-triggered PTB; DMA 0.2 mg/kg)	Number of pups dropped (LPS-triggered PTB; DMA 0.2 mg/kg, n=47 pups)	Number of pups retained (LPS-triggered PTB; DMA 0.39 mg/kg)	Number of pups retained (LPS-triggered PTB; DMA 0.78 mg/kg)	Number of pups retained (LPS-triggered PTB; DMA 1.56 mg/kg)	Number of pups dropped (LPS-triggered PTB; DMA 1.56 mg/kg, n=47 pups)	Number of pups retained (LPS-triggered PTB; DMA 3.1 mg/kg)	Number of pups dropped (LPS-triggered PTB; DMA 3.1 mg/kg, n=52 pups)	Prevention of PTB (LPS-triggered PTB; highest doses of DMA, 3.1 and 1.56 mg/kg) [%]	TNF-α expression in placentas (TNF-α)	IL-6 expression in placentas (IL-6)	Plasma level ([1]; after 24 hours)	Plasma half life [1]	Induction of hepatic monooxygenases [2]
CC(=O)N(C)C [DMA, N,N-dimethylacetamide]	significantly reduced; also recorded: suppressed	35	12	41	69	47	0***	52	0***	100	suppressed	suppressed	–	–	–
CNC(C)=O [MMA, N-monomethylacetamide]	–	–	–	–	–	–	–	–	–	–	–	–	a significant amount of MMA was still present	about 2.2 hours	did not induce any hepatic monooxygenases
